Source: patent publication US7063946B2, “Methods, reagents, kits and apparatus for protein function analysis” (Meso Scale Technologies, LLC., priority 2001, dated 2006)

Key:
BTK = molecular target: T1, BTK (Homo sapiens, UniProt Q06187); assay: Kinase inhibitor profiling, pEY phosphorylation; format: biochemical
T1 construct: specificity data for proteins generated from a library of eighteen full-length clones; host or cells: rabbit reticulocyte lysate, TnT coupled in vitro transcription/translation (cell-free)
Method: (§1) Proteins were produced in an in vitro transcription and translation reaction. […] The unbound components of the reaction containing endogenous kinases were removed by three washes with TT-buffer (25 mM Tris-HCl buffer pH 7.4 and 0.004% Triton), two five minutes washings with high-salt wash buffer (25 mM Tris-HCl buffer pH 7.4, 0.004% Triton, 1M NaCl and 5 mM DTT) and 3 more washes with TT-buffer. To these immobilized and purified proteins a tyrosine kinase substrate, 5 nM pEY (poly Glu-Tyr, Sigma, MO), was added in a 50 μl reaction solution containing 5 mM MgCl2, 5 mM MnCl2, 100 μM ATP, 25 mM Tris-HCl buffer pH 7.4, 0.05 mM Na3VO4, 0.004% TritonX-100, 2 mM DTT and EDTA-free protease inhibitor (Roche Molecular Biochemicals). This mixture was incubated with shaking at room temperature overnight to allow phosphorylation of the pEY substrate by the immobilized kinases. Following this incubation, 45 μl of this mixture was transferred to a streptavidin or avidin-coated NPT IPR plate coated with biotinylated anti-phosphotyrosine antibody (PY20, Zymed labs, CA) followed by incubation for 30 minutes at room temperature to allow the binding of the phosphorylated pEY substrate to the PY20 coated NPT plate. Following this binding step, 50 ng Sulfo-TAG labeled anti-phosphotyrosine in buffer containing 25 mM Tris-HCl buffer pH 7.4, 5 mM MgCl2, 0.05 mM Na3VO4, 0.004% TritonX-100, 2 mM DTT and 0.05% IgG was added followed by incubation at room temperature for 30 mm. The unbound reagents were removed by one time washing with water, and the TAG label was detected in presence of 150 μl IPR assay buffer (0.4 mM Gly-Gly buffer, pH 7.8, 1 mM EDTA, 0.1 M TPA). The ECL signals were measured using an imaging plate reader.
(§2) The unbound components of the translation reaction (including any endogenous kinases) were removed by 3 washes with TT-buffer (25 mM Tris-HCl buffer pH 7.4 and 0.004% Triton), two five minutes washes with high-salt wash buffer (25 mM Tris-HCl buffer pH 7.4, 0.004% Triton, 1M NaCl and 5 mM DTT) and 3 washes with TT-buffer. […] The mixture was incubated at room temperature for 10 mm before starting the kinase reaction by adding 25 μl of 200 μM ATP in buffer A. This mixture was incubated with intermittent shaking at room temperature for 2 hours to overnight to allow (a) phosphorylation of the pEY substrate and (b) autophosphorylation of the immobilized kinases. Autophosphorylation and phosphorylation of the pEY was measured as described in Examples 7 and 8.
(§3) The ECL signal in control wells produced by tyrosine kinases was compared to the wells containing inhibitor compounds.

[1] = tested on: tyrosine kinases reported to be the target of each inhibitor; conditions: read-out: reported IC50 concentration (1× concentration); for the kinase reported to be the target of the inhibitor; cited from earlier work
Kit = molecular target: T2, Kit (Mus musculus, UniProt P05532); assay: Kinase inhibitor profiling, pEY phosphorylation; format: biochemical
T2 construct: specificity data for proteins generated from a library of eighteen full-length clones; biotin on random lysines (biotin-Lys-tRNA); host or cells: rabbit reticulocyte lysate, coupled transcription/translation (TnT, Promega)
Method: as §1
(§4) Proteins were produced using 100 ng of plasmid DNA Mock (Luciferase, Promega) or tyrosine kinases (Fert2 IMAGE ID # 4485050, FGFR1 IMAGE ID # 4037899, Fgfr2 IMAGE ID # 2654352, Src IMAGE ID # 3156400, BMX IMAGE ID # 3919253, LCK IMAGE ID # 4191610, Epha7 IMAGE ID # 3991628, Ephb4 IMAGE ID # 4013934, Tek IMAGE ID # 3482498, HCK IMAGE ID # 4778819, BTK IMAGE ID # 4478463, CSK IMAGE ID # 4398416, SYK IMAGE ID # 3870426, FGR IMAGE ID # 4419973, PTK2B IMAGE ID # 4339456, FRK(IMAGE ID # 4515877, Kit IMAGE ID # 2644960, Fgfr-4 IMAGE ID # 4239139, NTRK3 IMAGE ID # 4181574, Kdr IMAGE ID # 4238984, Incyte Genomics, CA) and immobilized on SA or avidin coated NPT-IPR plates as described in previous examples. The unbound components of the translation reaction (including any endogenous kinases) were removed by 3 washes with TT-buffer (25 mM Tris-HCl buffer pH 7.4 and 0.004% Triton), two five minutes washes with high-salt wash buffer (25 mM Tris-HCl buffer pH 7.4, 0.004% Triton, 1M NaCl and 5 mM DTT) and 3 washes with TT-buffer. […] The mixture was incubated at room temperature for 10 mm before starting the kinase reaction by adding 25 μl of 200 μM ATP in buffer A. This mixture was incubated with intermittent shaking at room temperature for 2 hours to overnight to allow (a) phosphorylation of the pEY substrate and (b) autophosphorylation of the immobilized kinases. Autophosphorylation and phosphorylation of the pEY was measured as described in Examples 7 and 8.
(§5) The ECL signal in control wells produced by tyrosine kinases was compared to the wells containing inhibitor compounds. The signal produced from Mock was negligible.

EphB4 = molecular target: T3, EphB4 (Mus musculus, UniProt P54761); assay: Kinase inhibitor profiling, pEY phosphorylation; format: biochemical
T3 construct: specificity data for proteins generated from a library of eighteen full-length clones; host or cells: rabbit reticulocyte lysate, TnT coupled in vitro transcription/translation (cell-free)
T3 sequence (P54761 16-987): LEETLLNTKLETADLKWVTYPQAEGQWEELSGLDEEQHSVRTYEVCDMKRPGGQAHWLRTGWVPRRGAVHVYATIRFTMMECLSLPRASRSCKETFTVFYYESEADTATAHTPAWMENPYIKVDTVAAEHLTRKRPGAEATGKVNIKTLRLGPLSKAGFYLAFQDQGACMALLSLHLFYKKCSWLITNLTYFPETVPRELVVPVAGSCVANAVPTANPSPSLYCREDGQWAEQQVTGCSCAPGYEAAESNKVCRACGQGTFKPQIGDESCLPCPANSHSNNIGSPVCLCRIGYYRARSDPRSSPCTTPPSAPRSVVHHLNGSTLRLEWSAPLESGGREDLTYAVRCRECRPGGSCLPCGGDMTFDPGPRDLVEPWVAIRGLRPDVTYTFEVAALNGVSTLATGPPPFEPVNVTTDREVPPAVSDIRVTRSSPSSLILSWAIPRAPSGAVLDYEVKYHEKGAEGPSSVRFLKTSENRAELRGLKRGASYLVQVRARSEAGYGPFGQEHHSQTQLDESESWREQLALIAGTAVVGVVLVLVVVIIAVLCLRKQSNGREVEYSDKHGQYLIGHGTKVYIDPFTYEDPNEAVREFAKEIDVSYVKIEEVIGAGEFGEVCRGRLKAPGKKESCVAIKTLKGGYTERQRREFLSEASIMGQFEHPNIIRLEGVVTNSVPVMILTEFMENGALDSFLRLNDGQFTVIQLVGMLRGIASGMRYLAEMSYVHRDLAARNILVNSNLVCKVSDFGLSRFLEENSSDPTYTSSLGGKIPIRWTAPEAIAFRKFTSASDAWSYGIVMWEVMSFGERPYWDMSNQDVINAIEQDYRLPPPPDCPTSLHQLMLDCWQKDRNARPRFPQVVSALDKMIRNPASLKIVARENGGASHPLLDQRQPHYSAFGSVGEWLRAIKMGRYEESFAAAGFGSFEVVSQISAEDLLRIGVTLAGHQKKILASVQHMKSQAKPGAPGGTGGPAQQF
Method: as §1, §4, §5

Fgfr4 = molecular target: T4, Fgfr4 (Mus musculus, UniProt Q03142); assay: Kinase inhibitor profiling, pEY phosphorylation; format: biochemical
T4 construct: specificity data for proteins generated from a library of eighteen full-length clones; biotin on random lysines (biotin-Lys-tRNA); host or cells: rabbit reticulocyte lysate, coupled transcription/translation (TnT, Promega)
Method: as §1, §4, §5

Kdr = molecular target: T5, Kdr (Mus musculus, UniProt P35918); assay: Kinase inhibitor profiling, pEY phosphorylation; format: biochemical
T5 construct: specificity data for proteins generated from a library of eighteen full-length clones; biotin on random lysines (biotin-Lys-tRNA); host or cells: rabbit reticulocyte lysate, coupled transcription/translation (TnT, Promega)
Method: as §1, §2, §3

T2 sequence (P05532 25-979): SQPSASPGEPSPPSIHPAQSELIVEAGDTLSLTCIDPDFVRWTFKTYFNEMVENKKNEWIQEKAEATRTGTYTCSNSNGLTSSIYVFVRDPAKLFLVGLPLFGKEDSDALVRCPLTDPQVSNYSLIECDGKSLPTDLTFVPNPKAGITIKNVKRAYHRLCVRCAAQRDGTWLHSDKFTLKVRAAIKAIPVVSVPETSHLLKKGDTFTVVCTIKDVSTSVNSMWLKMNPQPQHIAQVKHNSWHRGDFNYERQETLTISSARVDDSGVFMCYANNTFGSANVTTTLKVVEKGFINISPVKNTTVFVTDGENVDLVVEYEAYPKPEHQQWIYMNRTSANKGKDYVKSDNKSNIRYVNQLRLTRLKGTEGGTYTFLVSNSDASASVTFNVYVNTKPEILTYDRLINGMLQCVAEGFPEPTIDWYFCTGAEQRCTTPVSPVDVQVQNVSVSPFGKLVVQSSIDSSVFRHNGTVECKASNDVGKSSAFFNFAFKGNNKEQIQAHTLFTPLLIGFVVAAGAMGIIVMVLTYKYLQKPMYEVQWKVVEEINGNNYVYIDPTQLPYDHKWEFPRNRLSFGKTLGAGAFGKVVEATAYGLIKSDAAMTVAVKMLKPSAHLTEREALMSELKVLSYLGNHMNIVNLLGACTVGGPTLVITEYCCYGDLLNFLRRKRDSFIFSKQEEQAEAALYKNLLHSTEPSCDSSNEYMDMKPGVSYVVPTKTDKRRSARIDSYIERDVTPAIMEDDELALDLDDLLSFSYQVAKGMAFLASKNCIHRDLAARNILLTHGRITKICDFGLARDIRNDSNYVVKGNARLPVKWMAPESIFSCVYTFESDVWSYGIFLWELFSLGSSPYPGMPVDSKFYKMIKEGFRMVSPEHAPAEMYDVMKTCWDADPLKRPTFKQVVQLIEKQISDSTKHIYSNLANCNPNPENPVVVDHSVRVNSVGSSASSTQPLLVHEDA
T1 sequence (Q06187 whole entry): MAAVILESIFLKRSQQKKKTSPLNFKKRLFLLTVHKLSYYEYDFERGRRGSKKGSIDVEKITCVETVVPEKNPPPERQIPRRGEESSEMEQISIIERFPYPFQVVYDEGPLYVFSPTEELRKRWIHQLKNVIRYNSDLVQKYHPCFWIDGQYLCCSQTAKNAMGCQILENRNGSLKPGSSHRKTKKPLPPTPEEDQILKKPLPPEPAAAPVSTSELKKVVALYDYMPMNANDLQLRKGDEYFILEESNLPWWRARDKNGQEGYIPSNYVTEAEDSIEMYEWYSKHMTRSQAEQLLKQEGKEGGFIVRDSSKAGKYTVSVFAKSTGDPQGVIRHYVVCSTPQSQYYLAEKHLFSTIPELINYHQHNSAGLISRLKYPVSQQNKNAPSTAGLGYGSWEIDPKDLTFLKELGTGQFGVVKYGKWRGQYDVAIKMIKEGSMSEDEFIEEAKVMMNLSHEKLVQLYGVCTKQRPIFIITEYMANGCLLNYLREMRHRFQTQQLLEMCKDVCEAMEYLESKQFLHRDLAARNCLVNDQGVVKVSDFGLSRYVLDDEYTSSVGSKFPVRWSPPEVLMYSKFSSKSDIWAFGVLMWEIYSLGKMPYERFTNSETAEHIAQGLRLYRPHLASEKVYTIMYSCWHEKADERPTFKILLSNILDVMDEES
T4 sequence (Q03142 17-799): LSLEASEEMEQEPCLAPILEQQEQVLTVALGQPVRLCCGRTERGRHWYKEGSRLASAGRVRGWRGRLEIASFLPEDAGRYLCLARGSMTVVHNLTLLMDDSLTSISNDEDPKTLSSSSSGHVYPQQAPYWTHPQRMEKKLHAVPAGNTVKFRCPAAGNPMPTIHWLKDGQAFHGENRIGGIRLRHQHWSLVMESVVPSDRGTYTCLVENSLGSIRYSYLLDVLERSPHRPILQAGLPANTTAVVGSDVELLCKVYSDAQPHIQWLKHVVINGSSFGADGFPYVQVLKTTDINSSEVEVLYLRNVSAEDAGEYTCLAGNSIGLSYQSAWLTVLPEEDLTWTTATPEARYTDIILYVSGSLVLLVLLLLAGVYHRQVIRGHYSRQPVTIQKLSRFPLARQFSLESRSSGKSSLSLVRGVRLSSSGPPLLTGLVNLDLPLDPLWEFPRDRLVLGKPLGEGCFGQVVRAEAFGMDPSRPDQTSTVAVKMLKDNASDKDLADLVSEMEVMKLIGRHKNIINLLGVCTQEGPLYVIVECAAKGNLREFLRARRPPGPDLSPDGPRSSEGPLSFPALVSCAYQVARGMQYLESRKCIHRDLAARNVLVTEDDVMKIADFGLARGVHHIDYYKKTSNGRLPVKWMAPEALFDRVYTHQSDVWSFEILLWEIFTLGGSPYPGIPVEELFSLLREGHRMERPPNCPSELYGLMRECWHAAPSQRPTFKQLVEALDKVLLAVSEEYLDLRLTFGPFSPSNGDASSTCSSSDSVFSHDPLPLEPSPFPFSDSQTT
T5 sequence (P35918 20-1345): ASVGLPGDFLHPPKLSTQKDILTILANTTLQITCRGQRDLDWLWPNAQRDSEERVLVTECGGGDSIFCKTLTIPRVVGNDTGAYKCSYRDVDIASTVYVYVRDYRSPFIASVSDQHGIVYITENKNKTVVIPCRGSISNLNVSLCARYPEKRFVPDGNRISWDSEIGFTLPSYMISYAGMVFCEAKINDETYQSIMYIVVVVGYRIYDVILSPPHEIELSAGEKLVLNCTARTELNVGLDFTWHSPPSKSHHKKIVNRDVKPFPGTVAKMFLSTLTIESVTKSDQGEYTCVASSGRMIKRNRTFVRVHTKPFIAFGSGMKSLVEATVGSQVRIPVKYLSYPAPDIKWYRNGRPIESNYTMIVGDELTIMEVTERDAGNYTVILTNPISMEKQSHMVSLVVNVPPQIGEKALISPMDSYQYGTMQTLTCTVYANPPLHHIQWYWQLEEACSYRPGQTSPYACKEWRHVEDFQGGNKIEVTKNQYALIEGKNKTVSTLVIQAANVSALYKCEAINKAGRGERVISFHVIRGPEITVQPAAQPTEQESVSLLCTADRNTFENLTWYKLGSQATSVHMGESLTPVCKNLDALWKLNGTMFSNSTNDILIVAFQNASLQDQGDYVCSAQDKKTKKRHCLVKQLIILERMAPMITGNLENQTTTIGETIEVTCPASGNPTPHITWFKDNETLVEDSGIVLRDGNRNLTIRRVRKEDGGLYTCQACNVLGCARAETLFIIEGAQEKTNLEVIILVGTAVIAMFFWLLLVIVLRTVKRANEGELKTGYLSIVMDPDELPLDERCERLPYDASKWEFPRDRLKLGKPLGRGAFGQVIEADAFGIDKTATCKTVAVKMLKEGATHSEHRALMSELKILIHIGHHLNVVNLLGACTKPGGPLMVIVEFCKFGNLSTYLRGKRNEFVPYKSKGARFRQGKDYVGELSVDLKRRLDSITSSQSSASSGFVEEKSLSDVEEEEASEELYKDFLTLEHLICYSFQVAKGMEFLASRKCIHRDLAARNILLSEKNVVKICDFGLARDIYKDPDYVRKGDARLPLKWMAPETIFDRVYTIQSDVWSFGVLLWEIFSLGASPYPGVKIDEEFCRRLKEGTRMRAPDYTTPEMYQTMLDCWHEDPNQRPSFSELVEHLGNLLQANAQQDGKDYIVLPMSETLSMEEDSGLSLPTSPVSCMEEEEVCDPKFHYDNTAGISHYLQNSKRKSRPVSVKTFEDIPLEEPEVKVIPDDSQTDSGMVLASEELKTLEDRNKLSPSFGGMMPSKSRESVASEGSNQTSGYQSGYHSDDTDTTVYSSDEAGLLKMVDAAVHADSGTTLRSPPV

SMILES | Inhibition specificity towards pEY phosphorylation at 10X IC50, BTK (BTK) | IC50 [1] [nM] | Inhibition specificity towards pEY phosphorylation at 10X IC50, Kit (Kit) | Inhibition specificity towards pEY phosphorylation at 10X IC50, EphB4 (EphB4) | Inhibition specificity towards pEY phosphorylation at 10X IC50, Fgfr4 (Fgfr4) | Inhibition specificity towards pEY phosphorylation at 10X IC50, Kdr (Kdr)
CC(C)(C)c1cc(/C=C(\C#N)C(N)=S)cc(C(C)(C)C)c1O [AG879] | L (low inhibition (“L”=between 50–75% of the activity remaining)) | 10000 | – | – | – | –
CC(C)(C)c1cc(C=C(C#N)C#N)cc(C(C)(C)C)c1O [AG-17] | – | 500 | L (low inhibition (“L”=between 50–75% of the activity remaining)) | – | – | –
N#C/C(=C/c1ccc(O)c(O)c1)C(=O)NCc1ccccc1 [AG-490] | L (low inhibition (“L”=between 50–75% of the activity remaining)) | 100 | – | – | – | –
COc1cc2ncc(-c3ccccc3)nc2cc1OC [AG-1296] | – | 1000 | M (medium inhibition (“M”=between 25 to 50% of the activity remaining)) | L (low inhibition (“L”=between 50–75% of the activity remaining)) | – | –
O=c1c(-c2ccc(O)cc2)coc2cc(O)cc(O)c12 [Genistein] | – | – | M (medium inhibition (“M”=between 25 to 50% of the activity remaining)) | L (low inhibition (“L”=between 50–75% of the activity remaining)) | – | –
C/C(O)=C(\C#N)C(=O)Nc1cc(Br)ccc1Br [LFM-A13] | – | 17200 | M (medium inhibition (“M”=between 25 to 50% of the activity remaining)) | – | M (medium inhibition (“M”=between 25 to 50% of the activity remaining)) | L (low inhibition (“L”=between 50–75% of the activity remaining))
O=C(O)c1cc(N(Cc2ccccc2O)Cc2cc(O)ccc2O)ccc1O [Lavendustin A] | – | 11 | L (low inhibition (“L”=between 50–75% of the activity remaining)) | – | – | –
